Assay results published in publication PMC12079242, “Design, Synthesis, Biological Evaluation, and Molecular Docking Studies of Novel 1,3,4-Thiadiazole Derivatives Targeting Both Aldose Reductase and α-Glucosidase for Diabetes Mellitus” (ACS Omega, 2025).
Values belong to the compound of their own block, whether it stands above or below them.

Key:
[1] = test system: S. typhimurium TA mix; test: Ames II mutagenicity test, TA mix; type: cell-based, Salmonella typhimurium; conditions: for Average number of the positive wells: TA Mix; for mutagenicity: TA mix strain
Description: (§1) Ames II Mutagenicity Assay Kit BioReliance and Moltox (Moltox, Boone, NC) kit were used in the experiment and the experiment was performed completely according to the kit procedure.[68]S. typhimurium TA 98 (hisD3052) and TA mix (hisG1775, hisC9138, hisG9074, hisG9133, hisG9130, hisC9070) strains were incubated in 50 mL tubes containing 10 mL growth medium at 37 °C for 24 h. At the end of the time, the OD600 value of the suspension was measured. Since the OD600 value ≥ 2.0, the experimental procedure was continued. The dilutions of 10 μL of compound 6h at 75, 37.5, 18.75, 9.4, 4.7 μM and compound 6o at […] were prepared at 5 different concentrations of the test substances dissolved in DMSO. The exposure plates (24 wells) with and without the S9 enzyme fraction were prepared for both strains. The exposure medium, bacteria, and test substance were added to the plates without S9 enzyme fraction in the amounts specified in the procedure; S9 enzyme fraction was added to the plates containing S9 enzyme fraction and incubated at 37 °C, 250 rpm for 90 min with shaking. At the end of the incubation period, […] of purple colored indicator medium specific for bacterial strains was added to each well of the plate. 4-Nitroquinoline-N-Oxide (4-NQO) - 2-Nitrofluorene (2-NF), and 2-Aminoanthracene (2-AA) were used as positive control and only DMSO was used as negative control. The contents of 50 μL in each well were transferred to 384 plates according to the determined experimental design and incubated at 37 °C for 48 h. At the end of the incubation period, bacterial metabolism in the plates changes the pH and changes the purple color to yellow. The number of yellow wells formed at the end of the experiment was determined as positive wells and the genotoxic properties of the substances were interpreted. Means and SD values of positive wells were calculated.[69]

[2] = test system: S. typhimurium TA 98; test: Ames II mutagenicity test, TA 98; type: cell-based, Salmonella typhimurium
Description: as §1

[3] = biological target: α-Glucosidase from Saccharomyces cerevisiae; test: α-Glycosidase inhibition assay with pNPG substrate; type: biochemical; conditions: for Ki: Lineweaver–Burk plots, read-out: α-GLY KI; for IC50: mean ± SEM, read-out: α-GLY IC50
Description: α-Glucosidase activity (α-Glucosidase from Saccharomyces cerevisiae) was assessed using p-nitrophenyl-D-glycopyranoside (pNPG) as the substrate, following the procedure outlined by Tao et al.[60],[61] Initially, 100 μL of phosphate buffer was mixed with 20 μL of the enzyme solution (0.15 U/mL, pH 6.8) and 10–100 μL (0.01–1 mg/mL^–1) of the sample. To ensure complete enzyme inhibition, multiple solutions were prepared in phosphate buffer. The mixture was preincubated at 35 °C for 12 min before the reaction was initiated by adding pNPG. Subsequently, 50 μL of pNPG solution (5.0 mM, pH 7.4) was added and incubated at 37 °C. Absorbance was measured spectrophotometrically at 405 nm.
Furthermore, the types of inhibition and inhibition constants (KI) were calculated from Lineweaver–Burk plots, providing detailed insights into the kinetic properties of these inhibitors.[62],[63]

[4] = test system: L929 fibroblast cell line; test: MTT cell viability assay; type: cell-based; conditions: Mus musculus; L929, 24 h incubation, 5–100 μM
Description: Healthy mouse fibroblast cell line (L929) was obtained from ATCC (American Type Culture Collection) and studied. Cells were mixed with 89% DMEM (Dulbecco’s modified Eagle’s medium; Gibco, Thermo Fisher Scientific), 10% FBS (Fetal Bovine Serum; Sigma-Aldrich) and 1% penicillin (Sigma-Aldrich) solutions. The cells in which the medium was added were allowed to grow by incubating at 37 °C in an environment containing 95% humidity and 5% CO2.[66],[67]
The cytotoxic effects of all syntheses by MTT analysis on L929 cell line was investigated. 96-well plates were used for seeding cells. Approximately 1 × 10^4 cells were seeded in each well. Cells were allowed to adhere for 24 h and then the syntheses were applied at different concentrations (5–100 μM). After adding syntheses at different concentrations, the wells were incubated for 24 h. All wells without syntheses were used as controls. After the incubation, the wells were treated with MTT solution to determine metabolically active cells and incubated at 37 °C for 3 h. After the MTT interaction, the wells were emptied and DMSO solution was placed in them. The formazan crystals formed were dissolved with this solution and the number of viable cells in each well was determined by color change. The absorbance values were read at 540 nm with the help of a microplate and the values found were represented as mean ± standard deviation (±SD).[66],[67]

SMILES: Nc1ccc2cc3ccccc3cc2c1 [2-AA, 2-Aminoanthracene, reference compound]
Average number of the positive wells ([1]; S9+, positive control): 16
Average number of the positive wells ([1]; S9–, positive control): 16
Average number of the positive wells ([2]; TA 98, S9+, positive control): 16
Average number of the positive wells ([2]; TA 98, S9–, positive control): 16

Ki [3]: 11.9 ± 0.62 µM
IC50 [3]: 12.6 ± 0.75 µM
SMILES: CCNc1nnc(SCC(=O)N(Cc2ccc([N+](=O)[O-])cc2)c2ccc(Cl)cc2)s1 [6a, N-(4-Chlororophenyl)-2-[(5-(ethylamino)-1,3,4-thiadiazol-2-yl)thio]-N-(4-nitrobenzyl) Acetamide]

Ki [3]: 96.5 ± 6.15 µM
IC50 [3]: 99 ± 7.37 µM
SMILES: CC(C)CNc1nnc(SCC(=O)N(Cc2ccc([N+](=O)[O-])cc2)c2ccc(Cl)cc2)s1 [6e, N-(4-Chlororophenyl)-2-[(5-(isobutylamino)-1,3,4-thiadiazol-2-yl)thio]-N-(4-nitrobenzyl) Acetamide]

Ki [3]: 342 ± 22.4 µM
IC50 [3]: 347 ± 18.3 µM
SMILES: O=C(CSc1nnc(NC2CCCCC2)s1)N(Cc1ccc([N+](=O)[O-])cc1)c1ccc(Cl)cc1 [6f, N-(4-Chlororophenyl)-2-[(5-(cyclohexylamino)-1,3,4-thiadiazol-2-yl)thio]-N-(4-nitrobenzyl) Acetamide]

Ki [3]: 12 ± 0.97 µM
IC50 [3]: 12.2 ± 0.87 µM
SMILES: O=C(CSc1nnc(Nc2ccccc2)s1)N(Cc1ccc([N+](=O)[O-])cc1)c1ccc(Cl)cc1 [6g, N-(4-Chlororophenyl)-2-[(5-(phenylamino)-1,3,4-thiadiazol-2-yl)thio]-N-(4-nitrobenzyl) Acetamide]
IC50 [4]: 99.5 ± 5.66 µM

SMILES: Cc1ccc(Nc2nnc(SCC(=O)N(Cc3ccc([N+](=O)[O-])cc3)c3ccc(Cl)cc3)s2)cc1 [6h, N-(4-Chlororophenyl)-2-[(5-(4-methylphenylamino)-1,3,4-thiadiazol-2-yl)thio]-N-(4-nitrobenzyl) Acetamide]
Ki [3]: 4.48 ± 0.25 µM
IC50 [3]: 4.68 ± 0.23 µM
Average number of the positive wells ([1]; S9+, 4.7 μM): 0
Average number of the positive wells ([1]; S9+, 9.4 μM): 0
Average number of the positive wells ([1]; S9+, 18.75 μM): 0
Average number of the positive wells ([1]; S9+, 37.5 μM): 0
Average number of the positive wells ([1]; S9+, 75 μM): 8
Average number of the positive wells ([1]; S9–, 4.7 μM): 0
Average number of the positive wells ([1]; S9–, 9.4 μM): 0
Average number of the positive wells ([1]; S9–, 18.75 μM): 0
Average number of the positive wells ([1]; S9–, 37.5 μM): 0
Average number of the positive wells ([1]; S9–, 75 μM): 5
mutagenicity ([1]; presence and absence of S9, 75 μM): mutagenicity was detected
Average number of the positive wells ([2]; TA 98, S9+, 4.7 μM): 0
Average number of the positive wells ([2]; TA 98, S9+, 9.4 μM): 0
Average number of the positive wells ([2]; TA 98, S9+, 18.75 μM): 0
Average number of the positive wells ([2]; TA 98, S9+, 37.5 μM): 0
Average number of the positive wells ([2]; TA 98, S9+, 75 μM): 0
Average number of the positive wells ([2]; TA 98, S9–, 4.7 μM): 0
Average number of the positive wells ([2]; TA 98, S9–, 9.4 μM): 0
Average number of the positive wells ([2]; TA 98, S9–, 18.75 μM): 0
Average number of the positive wells ([2]; TA 98, S9–, 37.5 μM): 0
Average number of the positive wells ([2]; TA 98, S9–, 75 μM): 0

Ki [3]: 15.9 ± 0.92 µM
IC50 [3]: 16.5 ± 0.93 µM
SMILES: COCCNc1nnc(SCC(=O)N(Cc2ccc([N+](=O)[O-])cc2)c2ccc(F)cc2)s1 [6j, N-(4-Fluorophenyl)-2-[(5-((2-methoxyethyl)amino)-1,3,4-thiadiazol-2-yl)thio]-N-(4-nitrobenzyl) Acetamide]

IC50 [3]: > 500 µM
SMILES: CCCNc1nnc(SCC(=O)N(Cc2ccc([N+](=O)[O-])cc2)c2ccc(F)cc2)s1 [6k, N-(4-Fluorophenyl)-2-[(5-(propylamino)-1,3,4-thiadiazol-2-yl)thio]-N-(4-nitrobenzyl) Acetamide]

IC50 [3]: > 500 µM
SMILES: CC(C)Nc1nnc(SCC(=O)N(Cc2ccc([N+](=O)[O-])cc2)c2ccc(F)cc2)s1 [6l, N-(4-Fluorophenyl)-2-[(5-(isopropylamino)-1,3,4-thiadiazol-2-yl)thio]-N-(4-nitrobenzyl)acetamide]

IC50 [3]: > 500 µM
SMILES: CCCCNc1nnc(SCC(=O)N(Cc2ccc([N+](=O)[O-])cc2)c2ccc(F)cc2)s1 [6m, N-(4-Fluorophenyl)-2-[(5-(butylamino)-1,3,4-thiadiazol-2-yl)thio]-N-(4-nitrobenzyl) Acetamide]

SMILES: O=C(CSc1nnc(NC2CCCCC2)s1)N(Cc1ccc([N+](=O)[O-])cc1)c1ccc(F)cc1 [6o, N-(4-Fluorophenyl)-2-[(5-(cyclohexylamino)-1,3,4-thiadiazol-2-yl)thio]-N-(4-nitrobenzyl)acetamide]
Ki [3]: 12.5 ± 1.08 µM
IC50 [3]: 34.6 ± 1.78 µM
Average number of the positive wells ([1]; S9+, 3.125 nM): 0
Average number of the positive wells ([1]; S9+, 6.25 nM): 0
Average number of the positive wells ([1]; S9+, 12.5 nM): 0
Average number of the positive wells ([1]; S9+, 25 nM): 0
Average number of the positive wells ([1]; S9+, 50 nM): 15.3
Average number of the positive wells ([1]; S9–, 3.125 nM): 0
Average number of the positive wells ([1]; S9–, 6.25 nM): 0
Average number of the positive wells ([1]; S9–, 12.5 nM): 0
Average number of the positive wells ([1]; S9–, 25 nM): 0
Average number of the positive wells ([1]; S9–, 50 nM): 15.3
mutagenicity ([1]; presence and absence of S9, 50 nM): mutagenicity was detected
Average number of the positive wells ([2]; TA 98, S9+, 3.125 nM): 0
Average number of the positive wells ([2]; TA 98, S9+, 6.25 nM): 0
Average number of the positive wells ([2]; TA 98, S9+, 12.5 nM): 0
Average number of the positive wells ([2]; TA 98, S9+, 25 nM): 0
Average number of the positive wells ([2]; TA 98, S9+, 50 nM): 0
Average number of the positive wells ([2]; TA 98, S9–, 3.125 nM): 0
Average number of the positive wells ([2]; TA 98, S9–, 6.25 nM): 0
Average number of the positive wells ([2]; TA 98, S9–, 12.5 nM): 0
Average number of the positive wells ([2]; TA 98, S9–, 25 nM): 0
Average number of the positive wells ([2]; TA 98, S9–, 50 nM): 0

Ki [3]: 8.38 ± 0.12 µM
IC50 [3]: 8.25 ± 0.56 µM
SMILES: O=C(CSc1nnc(Nc2ccccc2)s1)N(Cc1ccc([N+](=O)[O-])cc1)c1ccc(F)cc1 [6p, N-(4-Fluorophenyl)-2-[(5-(phenylamino)-1,3,4-thiadiazol-2-yl)thio]-N-(4-nitrobenzyl)acetamide]

Ki [3]: 7.86 ± 0.62 µM
IC50 [3]: 8.15 ± 0.48 µM
SMILES: Cc1ccc(Nc2nnc(SCC(=O)N(Cc3ccc([N+](=O)[O-])cc3)c3ccc(F)cc3)s2)cc1 [6q, N-(4-Fluorophenyl)-2-[(5-(4-methylphenylamino)-1,3,4-thiadiazol-2-yl)thio]-N-(4-nitrobenzyl) Acetamide]
